Results: the supplement of paper PMC10733146

Assays:
Assay in all cases: viability relative to DMSO control (fraction); higher = less drug effect (more viable cells)
Settings in all cases: 48 h
[1] = tested on: primary DLBCL patient cells (S076)
Outline: (§1)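 Viability was quantified by CellTiter-Glo luminescence and related to the median of 16 inner DMSO wells. Before that, primary mononuclear tumour cells, fresh or cryopreserved and Ficoll-isolated from blood or bone marrow or prepared from processed lymph node, were plated at 4 × 10^4 cells per well in 384-well plates containing pre-plated compounds at five concentrations, one well each. Plates were incubated in RPMI-1640 with penicillin/streptomycin, L-glutamine and human serum at 37 °C and 5% CO2 for 48 h.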

[2] = tested on: primary ALL patient cells (S048)
Outline: as §1

[3] = tested on: primary AML patient cells (S089)
Outline: as §1

[4] = tested on: primary AML patient cells (S021)
Outline: as §1

[5] = tested on: primary AML patient cells (S007)
Outline: as §1

[6] = tested on: primary AML patient cells (S091)
Outline: as §1

[7] = tested on: primary FL patient cells (S022)
Outline: as §1

[8] = tested on: primary AML patient cells (S081)
Outline: as §1

[9] = tested on: primary AML patient cells (S019)
Outline: as §1

[10] = tested on: primary DLBCL patient cells (S049)
Outline: as §1

[11] = tested on: primary AML patient cells (S037)
Outline: as §1

[12] = tested on: primary T-PLL patient cells (S008)
Outline: as §1

[13] = tested on: primary MCL patient cells (S068)
Outline: as §1

[14] = tested on: primary T-NHL patient cells (S058)
Outline: as §1

[15] = tested on: primary AML patient cells (S025)
Outline: as §1

[16] = tested on: primary AML patient cells (S002)
Outline: as §1

[17] = tested on: primary AML patient cells (S011)
Outline: as §1

Work on `CC#CC(=O)N1CCC[C@H]1c1nc(-c2ccc(C(=O)Nc3ccccn3)cc2)c2c(N)nccn12` [Acalabrutinib (ACP-196)] yielded a viability ([1]; 0.008 µM) of 1.08, a viability ([1]; 0.04 µM) of 1.14 and a viability ([1]; 0.2 µM) of 1.11. For the same molecule, the viability ([1]; 1 µM) was 1.12, the viability ([1]; 5 µM) was 1.06 and the viability ([2]; 0.008 µM) was 1.05. For the same molecule, the viability ([2]; 0.04 µM) was 0.955, the viability ([2]; 0.2 µM) was 0.975 and the viability ([2]; 1 µM) was 0.962. The viability ([2]; 5 µM) was 1.03, the viability ([3]; 0.008 µM) was 0.975 and the viability ([3]; 0.04 µM) was 0.996. It also gave a viability ([3]; 0.2 µM) of 0.91, a viability ([3]; 1 µM) of 0.679 and a viability ([3]; 5 µM) of 0.629. The viability ([4]; 0.008 µM) was 1.13, the viability ([4]; 0.04 µM) was 1.05 and the viability ([4]; 0.2 µM) was 1.13. It also gave a viability ([4]; 1 µM) of 1.1, a viability ([4]; 5 µM) of 1.03 and a viability ([5]; 0.008 µM) of 0.895. For the same molecule, the viability ([5]; 0.04 µM) was 0.945, the viability ([5]; 0.2 µM) was 0.911 and the viability ([5]; 1 µM) was 1.07. For the same molecule, the viability ([5]; 5 µM) was 1.04, the viability ([6]; 0.008 µM) was 0.945 and the viability ([6]; 0.04 µM) was 1.06. For the same molecule, the viability ([6]; 0.2 µM) was 0.979, the viability ([6]; 1 µM) was 1.01 and the viability ([6]; 5 µM) was 1.07. It also gave a viability ([7]; 0.008 µM) of 1.1, a viability ([7]; 0.04 µM) of 1.12 and a viability ([7]; 0.2 µM) of 1.11. For the same molecule, the viability ([7]; 1 µM) was 1.09, the viability ([7]; 5 µM) was 1.05 and the viability ([8]; 0.008 µM) was 1.01. For the same molecule, the viability ([8]; 0.04 µM) was 1.05, the viability ([8]; 0.2 µM) was 0.985 and the viability ([8]; 1 µM) was 1.02. For the same molecule, the viability ([8]; 5 µM) was 1.02, the viability ([9]; 0.008 µM) was 1.09 and the viability ([9]; 0.04 µM) was 1.2. The viability ([9]; 0.2 µM) was 1.08, the viability ([9]; 1 µM) was 1.12 and the viability ([9]; 5 µM) was 1.06. The viability ([10]; 0.008 µM) was 0.892, the viability ([10]; 0.04 µM) was 0.758 and the viability ([10]; 0.2 µM) was 0.693. For the same molecule, the viability ([10]; 1 µM) was 0.74, the viability ([10]; 5 µM) was 0.704 and the viability ([11]; 0.008 µM) was 1.07. It also gave a viability ([11]; 0.04 µM) of 1.62, a viability ([11]; 0.2 µM) of 1.07 and a viability ([11]; 1 µM) of 1.22. For the same molecule, the viability ([11]; 5 µM) was 1.05, the viability ([12]; 0.008 µM) was 1.11 and the viability ([12]; 0.04 µM) was 1.01. It also gave a viability ([12]; 0.2 µM) of 1.08, a viability ([12]; 1 µM) of 0.989 and a viability ([12]; 5 µM) of 1.13. It also gave a viability ([13]; 0.008 µM) of 0.878, a viability ([13]; 0.04 µM) of 0.805 and a viability ([13]; 0.2 µM) of 0.788. The viability ([13]; 1 µM) was 0.767, the viability ([13]; 5 µM) was 0.785 and the viability ([14]; 0.008 µM) was 1.16. For the same molecule, the viability ([14]; 0.04 µM) was 1.21, the viability ([14]; 0.2 µM) was 1.14 and the viability ([14]; 1 µM) was 1.25. The viability ([14]; 5 µM) was 1.06, the viability ([15]; 0.008 µM) was 1.06 and the viability ([15]; 0.04 µM) was 1.26. It also gave a viability ([15]; 0.2 µM) of 1.04, a viability ([15]; 1 µM) of 1.05 and a viability ([15]; 5 µM) of 1.05. For the same molecule, the viability ([16]; 0.008 µM) was 0.98, the viability ([16]; 0.04 µM) was 1.15 and the viability ([16]; 0.2 µM) was 1.03. For the same molecule, the viability ([16]; 1 µM) was 0.952, the viability ([16]; 5 µM) was 1.04 and the viability ([17]; 0.008 µM) was 1.03. For the same molecule, the viability ([17]; 0.04 µM) was 1.02, the viability ([17]; 0.2 µM) was 1.01 and the viability ([17]; 1 µM) was 0.864. It also gave a viability ([17]; 5 µM) of 1.01.
